Measurements published in patent US6506766B1 (Abbott Laboratories, priority 1998, dated 2003).

Key:
[1] = biological target: T1, human progesterone receptor-A [PRA] isoform (Homo sapiens, UniProt P06401); assay: Radioligand binding with human progesterone receptor cytosol ([3H]-progesterone competition); conditions: PRA cytosol expressed in insect SF21 cells, [3H]Prog ~0.8 nM, 4° C. overnight; Ki by Cheng-Prusoff, KL ~4.5 nM; read-out: Ki (nM) PR
T1 construct: host or cells: insect SF21 cells (baculovirus)
T1 sequence (P06401 1-769 isoform P06401-2): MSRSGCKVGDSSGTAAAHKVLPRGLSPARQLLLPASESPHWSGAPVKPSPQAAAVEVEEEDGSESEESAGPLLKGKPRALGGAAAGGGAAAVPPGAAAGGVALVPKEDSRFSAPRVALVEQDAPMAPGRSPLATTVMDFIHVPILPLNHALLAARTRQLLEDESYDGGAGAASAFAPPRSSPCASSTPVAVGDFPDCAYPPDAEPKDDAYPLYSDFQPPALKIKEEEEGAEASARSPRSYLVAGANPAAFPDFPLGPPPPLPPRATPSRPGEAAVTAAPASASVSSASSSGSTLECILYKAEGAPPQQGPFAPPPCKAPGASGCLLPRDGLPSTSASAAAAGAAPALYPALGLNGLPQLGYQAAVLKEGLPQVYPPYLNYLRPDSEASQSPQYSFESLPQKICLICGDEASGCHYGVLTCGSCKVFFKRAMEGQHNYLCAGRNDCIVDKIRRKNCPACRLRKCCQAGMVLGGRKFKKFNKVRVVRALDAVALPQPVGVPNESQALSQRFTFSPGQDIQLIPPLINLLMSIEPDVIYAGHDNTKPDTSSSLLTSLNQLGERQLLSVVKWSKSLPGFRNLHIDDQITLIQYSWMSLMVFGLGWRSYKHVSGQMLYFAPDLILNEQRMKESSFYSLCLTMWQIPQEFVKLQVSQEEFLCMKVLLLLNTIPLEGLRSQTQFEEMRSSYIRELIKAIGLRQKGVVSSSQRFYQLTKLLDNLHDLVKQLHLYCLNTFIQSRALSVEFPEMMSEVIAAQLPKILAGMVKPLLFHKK

[2] = biological target: T2, human glucocorticoid receptor-α [GRX] isoform (Homo sapiens, UniProt P04150); assay: Radioligand binding with human glucocorticoid receptor cytosol ([3H]-dexamethasone competition); conditions: GRX cytosol expressed in insect SF21 cells, [3H]-Dex ~0.9 nM, 4° C. overnight; Ki by Cheng-Prusoff, KL ~[…]; read-out: Ki (nM) GR
T2 construct: host or cells: insect SF21 cells (baculovirus)
T2 sequence (P04150 1-777): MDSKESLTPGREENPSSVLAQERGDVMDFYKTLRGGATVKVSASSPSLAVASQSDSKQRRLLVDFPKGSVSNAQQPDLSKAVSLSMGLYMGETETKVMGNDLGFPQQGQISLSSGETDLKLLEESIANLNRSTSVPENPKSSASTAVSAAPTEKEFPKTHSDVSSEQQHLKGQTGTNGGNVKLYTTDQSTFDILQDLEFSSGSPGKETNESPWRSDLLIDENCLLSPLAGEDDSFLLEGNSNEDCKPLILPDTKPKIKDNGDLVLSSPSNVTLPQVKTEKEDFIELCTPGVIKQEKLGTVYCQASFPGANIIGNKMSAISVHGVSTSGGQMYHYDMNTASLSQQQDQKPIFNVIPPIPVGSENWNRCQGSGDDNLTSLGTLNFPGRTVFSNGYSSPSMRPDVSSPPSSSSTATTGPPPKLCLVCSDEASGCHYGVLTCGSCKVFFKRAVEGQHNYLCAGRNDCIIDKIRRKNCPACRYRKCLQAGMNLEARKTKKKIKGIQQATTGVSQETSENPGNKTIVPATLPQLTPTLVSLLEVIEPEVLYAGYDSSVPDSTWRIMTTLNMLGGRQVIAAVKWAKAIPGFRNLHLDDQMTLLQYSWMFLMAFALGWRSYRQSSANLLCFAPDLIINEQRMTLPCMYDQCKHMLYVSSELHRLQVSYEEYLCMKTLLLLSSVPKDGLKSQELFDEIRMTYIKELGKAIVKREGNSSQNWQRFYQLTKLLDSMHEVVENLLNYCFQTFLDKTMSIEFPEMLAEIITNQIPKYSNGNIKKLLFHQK

| SMILES | Ki [1] | Ki [2] |
| --- | --- | --- |
| COc1c(O)ccc2c1-c1ccc3c(c1C(c1ccc(F)cc1)O2)C(C)=CC(C)(C)N3 (stereo not shown) [Example 255, 2,5-Dihydro-9-hydroxy-10-methoxy-2,2,4-trimethyl-5-(4-fluorophenyl)-1H-[1]benzopyrano[3,4-f]quinoline] | 1430 nM | 1.5 nM |
| C=CCC1Oc2cccc(C#N)c2-c2ccc3c(c21)C(C)=CC(C)(C)N3 (stereo not shown) [Example 327, 2,5-Dihydro-10-cyano-5-(3-propenyl)-2,2,4-trimethyl-1H-[1]benzopyrano[3,4-f]quinoline] | 1460 nM | 9.3 nM |
| COc1cccc2c1-c1ccc3c(c1C(c1ccc(C)c(F)c1)O2)C(C)=CC(C)(C)N3 (stereo not shown) [Example 51] | 7330 nM | 18 nM |
| COc1cccc2c1-c1ccc3c(c1C(=Cc1ccccn1)O2)C(C)=CC(C)(C)N3 [Example 128, 2,5-Dihydro-10-methoxy-2,2,4-trimethyl-5-(2-pyridinylmethylene)-1H-[1]benzopyrano[3,4-f]quinoline] | ≥ 10000 nM | 5.9 nM |
| COc1cccc2c1-c1ccc3c(c1C(C#Cc1ccccc1)O2)C(C)=CC(C)(C)N3 (stereo not shown) [Example 322, 2,5-Dihydro-10-methoxy-5-(2-phenylethynyl)-2,2,4-trimethyl-1H-[1]benzopyrano[3,4-f]quinoline] | 2300 nM | 107 nM |
| C=CCC1Oc2cccc(O)c2-c2ccc3c(c21)C(C)=CC(C)(C)N3 (stereo not shown) [Example 82, 2,5-Dihydro-2,2,4-trimethyl-5-(2-propenyl)-1H-1benzopyrano[3,4-f]quinolin-10-ol] | 327 nM | 22.9 nM |
| COc1cccc2c1-c1ccc3c(c1C(c1cccc(OC[S+](C)[O-])c1)O2)C(C)=CC(C)(C)N3 (stereo not shown) [Example 101, 2,5-Dihydro-10-methoxy-2,2,4-trimethyl-5-[3-[(methylsulfinyl)methoxy]phenyl]-1H-[1]benzopyrano[3,4-f]quionline] | ≥ 10000 nM | 11.4 nM |
| COC(=O)Oc1cccc2c1-c1ccc3c(c1C(c1cc(Cl)cc(Cl)c1)O2)C(C)=CC(C)(C)N3 (stereo not shown) [Example 81] | ≥ 10000 nM | 155 nM |
| COc1cccc2c1-c1ccc3c(c1C([C@@H]1C=C(COC(C)=O)CCC1)O2)C(C)=CC(C)(C)N3 (stereo in doubt) [Example 162] | ≥ 10000 nM | 6.5 nM |
| C=Cc1cccc2c1-c1ccc3c(c1C(C1C=CCCC1)O2)C(C)=CC(C)(C)N3 (stereo not shown) [Example 340] | 254 nM | 1.8 nM |
| C=CCC1Oc2cccc(SC)c2-c2ccc3c(c21)C(C)=CC(C)(C)N3 (stereo not shown) [Example 343, 2,5-Dihydro-5-(3-propenyl)-10-methylthio-2,2,4-trimethyl-1H-[1]benzopyrano[3,4-f]quinoline] | 4700 nM | 5.2 nM |
| COCCNc1cc(C)cc(C2Oc3cccc(OC)c3-c3ccc4c(c32)C(C)=CC(C)(C)N4)c1 (stereo not shown) [Example 116, 3-(2,5-Dihydro-10-methoxy-2,2,4-trimethyl-1H-[1]benzopyrano[3,4-f]quinolin-5-yl)-N-(2-methoxyethyl)-5-methylbenamine] | ≥ 10000 nM | 7.2 nM |
| COc1c(C)ccc2c1-c1ccc3c(c1C(C1C=C(C)CCC1)O2)C(C)=CC(C)(C)N3 (racemic) [Example 307, (+/−)2,5-Dihydro-9-methyl-10-methoxy-2,2,4-trimethyl-5-(1-methylcyclohexen-3-yl)-1H-[1]benzopyrano[3,4-f]quinoline] | 27.8 nM | 4.6 nM |
| COCCNC(=O)OCCC1Oc2cccc(OC)c2-c2ccc3c(c21)C(C)=CC(C)(C)N3 (stereo not shown) [Example 202, 2,5-Dihydro-10-methoxy-5-(2-(N-(2-methoxyethyl)aminocarbonyloxy)ethyl)-2,2,4-trimethyl-1H-[1]benzopyrano[3,4-f]quinoline] | ≥ 10000 nM | 134 nM |
| C=CCC1Oc2cccc(OC)c2-c2ccc3c(c21)C(C)=CC(CC)(CC)N3 (stereo not shown) [Example 361, 2,5-Dihydro-10-methoxy-2,2-diethyl-4-methyl-5-allyl-1H-[1]benzopyrano[3,4-f]quinoline] | 9140 nM | 95.7 nM |
| COc1cccc2c1-c1ccc3c(c1C(CC=O)O2)C(C)=CC(C)(C)N3 (stereo not shown) [Example 186, 2-(2,5-Dihydro-10-methoxy-2,2,4-trimethyl-1H-[1]benzopyrano[3,4-f]quinolin-5-yl)acetaldehyde] | ≥ 10000 nM | 90 nM |
| COc1cccc2c1-c1ccc3c(c1C(c1cccc(OCc4ccccc4)c1)O2)C(C)=CC(C)(C)N3 (stereo not shown) [Example 87, 2,5-Dihydro-10-methoxy-2,2,4-trimethyl-5-[3-(phenylmethoxy)phenyl]-1H[1]benzopyrano[3,4-f]quinoline] | ≥ 10000 nM | 4.7 nM |
| COc1c(O)ccc2c1-c1ccc3c(c1C(c1nccs1)O2)C(C)=CC(C)(C)N3 (stereo not shown) [Example 408, 2,5-Dihydro-9-hydroxy-10-methoxy-2,2,4-trimethyl-5-(1-thiazol-2-yl)-1H-[1]benzopyrano[3,4-f]quinoline] | 14100 nM | 112 nM |
| C=CCC1Oc2ccc(OC(=O)CCCN(C)C)c(OC)c2-c2ccc3c(c21)C(C)=CC(C)(C)N3 (stereo not shown) [Example 426, 2,5-Dihydro-9-(4-N,N-dimethylaminobutanoyloxy)-10-methoxy-2,2,4-trimethyl-5-(2-propenyl)-1H-[1]benzopyrano[3,4-f]quinoline] | 110 nM | 0.85 nM |
| COC(=O)CC1Oc2ccc(O)c(OC)c2-c2ccc3c(c21)C(C)=CC(C)(C)N3 (stereo not shown) [Example 281, Methyl 2-[2,5-Dihydro-9-hydroxy-10-methoxy-2,2,4-trimethyl-1H-[1]benzopyrano[3,4-f]-5-quinoline]acetate] | 526 nM | 0.84 nM |
| COc1cccc2c1-c1ccc3c(c1C(/C=C\c1ccccc1)O2)C(C)=CC(C)(C)N3 (stereo not drawn) [Example 323, cis 2,5-Dihydro-10-methoxy-5-(2-phenylethenyl)-2,2,4-trimethyl-1H-[1]benzopyrano[3,4-f]quinoline] | ≥ 10000 nM | 428 nM |
| CCc1cccc2c1-c1ccc3c(c1C(c1ccccc1)O2)C(C)=CC(C)(C)N3 (stereo not shown) [Example 70, 10-Ethyl-2,5-dihydro-2,2,4-trimethyl-5-phenyl-1H-[1]benzopyrano[3,4-f]quinoline] | 7300 nM | 25.5 nM |
| CC1=CC(C)(C)Nc2ccc3c(c21)/C(=C/c1ccccn1)Oc1ccc(O)c(Cl)c1-3 [Example 368, Z-10-Chloro-9-hydroxy-5-(2-picolinylidenyl)-2,2,4-trimethyl-2,5-dihydro-1H-[1]benzopyrano[3,4-f]quinoline] | 61 nM | 0.21 nM |
| CNCC1=CC(C2Oc3cccc(OC)c3-c3ccc4c(c32)C(C)=CC(C)(C)N4)CCC1 [Example 170, rel (5R, 3′R) 2,5-Dihydro-10-methoxy-5-(1-(N-methylamino)methyl-3-cyclohexenyl)2,2,4-trimethyl-1H-[1]benzoppyrano[3,4-f]quinoline] | ≥ 10000 nM | 82 nM |
| COc1cccc2c1-c1ccc3c(c1C(CC(=O)c1ccccc1)O2)C(C)=CC(C)(C)N3 (stereo not shown) [Example 47, 2-(2,5-Dihydro-10-methoxy-2,2,4-trimethyl-1H-[1]benzopyrano[3,4-f]quinolin-5-yl)-1-phenylethanone] | ≥ 10000 nM | 174 nM |
| COc1cccc2c1-c1ccc3c(c1C(c1cccc(-c4ccco4)c1)O2)C(C)=CC(C)(C)N3 (stereo not shown) [Example 112, 5-[3-(2-Furanyl)phenyl]-2,5-dihydro-10-methoxy-2,2,4-trimethyl-1H-[1]benzopyrano[3,4-f]quinoline] | ≥ 10000 nM | 31 nM |
